Test results taken from patent US4001230A, “3-(5-Nitroimidazol-2-yl)pyrazolo[3,4-d]pyrimidine compounds” (Eli Lilly and Company, priority 1975, dated 1977).
Values after ≈ are worked out from the molar mass of the structure shown. Like-named read-outs stand apart in the source and are kept apart here.

How the values were obtained:
Pseudomonas sp. = experiment: In vitro activity against fish bacterial pathogen, standard tube dilution test (MIC); assay type: cell-based; settings: tryptose broth, overnight, about 37° C., read-out: minimum inhibitory concentration (MIC)
Procedure: (§1) The in vitro activity of certain of the novel compounds of this invention against two fish bacterial pathogens was determined using tryptose broth and the standard tube dilution test system. Doubling dilutions ranging from 100.0 to 0.78 mcg./ml. of each of the test compounds were prepared in 5 ml. amounts of tryptose broth. Each tube in the series was then inoculated with one drop from a 24-hour broth culture of either Pseudomonas sp. or a strain of Aeromonas liquefaciens. The tubes were incubated overnight at about 37° C., and the minimum inhibitory concentration (MIC) determined and recorded.
(§2) Column 1 lists the test compounds identified by their operating example number; column 2 lists the MIC for Pseudomonas sp.; and column 3 lists the MIC for Aeromonas liquefaciens.

Aeromonas liquefaciens = experiment: as above; assay type: cell-based; settings: Aeromonas hydrophila; Aeromonas liquefaciens; tryptose broth, overnight, about 37° C.; read-out: minimum inhibitory concentration (MIC)
Procedure: as §1, §2

Salmonella typhimurium = experiment: In vivo activity against Salmonella typhimurium in chicks, subcutaneous
Pasteurella multocida = experiment: Efficacy against Pasteurella multocida infections in mice when administered by injection; assay type: in vivo, Female Swiss mice; settings: for responders at 5 mg/kg / responders at 2.5 mg/kg / responders at 1.25 mg/kg: Pasteurella multocida, ip, read-out: Survival ratio (mice surviving / mice tested) (converted); for responders at 2.5 mg/kg: 2.5 mg./kg. intraperitoneal; for responders at 1.25 mg/kg: 1.25 mg./kg. intraperitoneal
Procedure: The efficacy of the novel compounds against Pasteurella multocida infections in mice when administered by injection was studied.
Female Swiss mice weighing from 15 to about 20 g. were used. The test compound, 5.0 mg., was weighed out and dissolved in 0.5 ml. of dimethyl sulfoxide, and this solution was added to 9.5 ml. of sodium carboxymethylcellulose suspension. Groups of five mice each were injected intraperitoneally with 0.1 ml. each of the above-prepared test composition. This preparation gave a test rate of 2.5 mg. per kilo of body weight of mouse. The compounds were tested at 1.25, 2.5, or 5.0 per kilogram of body weight of mouse, and the test preparations for the rates of 1.25 and 5.0 mg./kg. were prepared in a similar manner. Immediately after receiving the test compound, the mice were challenged using log10 dilutions of 10^-^4, 10^-^5 and 10^-^6,of a 16 to 20-hour tryptose broth culture of Pasteurella multocida at 0.1 ml. per mouse subcutaneously. Similar groups of nontreated control mice were also challenged, the challenge being administered subcutaneously. The groups of mice were observed daily for mortality and the total mortality in treated groups compared with that which occurred in the nonmedicated control groups. Each test compound is identified by the number of the example describing its preparation.
In the chart, column 1 lists the test compound; column 2, the dosage of test compound in mg./kg. of mouse body weight; column 3, the dilution of the challenge organism; and column 4, the ratio of the number of mice surviving the test at each dosage and challenge dilution to the number of mice tested at each dosage and challenge dilution, called the survival ratio.

Trichomonas vaginalis [1] = experiment: In vitro activity against Trichomonas vaginalis; assay type: cell-based
Trichomonas vaginalis [2] = experiment: In vivo activity against Trichomonas vaginalis
P. multocida = experiment: In vivo activity in drinking water for treatment of Pasteurella multocida infection in mice (LD50, protective index); parameters: species or system white female mice; settings: observed 7 days
Procedure: A comparison of the in vivo activity of a novel compound of this invention and nitrofurazolidone (Furacin) when administered in drinking water for the treatment of Pasteurella multocida infection in mice was conducted. The novel compound of this invention used in this study was 4,5-di-hydro-4-imino-1-methyl-3-(1-methyl-5-nitroimidazol-2-yl)-5-(4-pyridylmethyl)-1H-pyrazolo[3,4-d]pyrimidine diphosphate, identified by its operating example No. 8k. The test was conducted in the following manner.
Twenty white female mice, each weighing about 15-20 g., were divided into four groups of five mice each, and the groups were each placed on water medication containing:
a. Compound 8k, 0.5 g./gal.
b. Compound 8k, 2.0 g./gal.
c. Nitrofurazolidone, 0.5 g./gal.
d. Nitrofurazolidone, 2.0 g./gal.
The groups receiving each treatment were challenged with 0.1 ml. each of a 10^-^4, 10^-^5, 10^-^6, or 10^-^7 dilution of a 16 to 20-hour broth culture of P. multocida. Untreated groups of mice were challenged with log10 dilutions of the same broth culture using 0.1 ml. of 10^-^4 through 10^-^9 dilutions. […] By subtracting the LD50 of each of the treated groups from that of the control group of mice, there was obtained a figure called the protective index.
In the table, column 1 sets forth the treatment; column 2, the LD50; and column 3 the log10 protection obtained.

Treponema hyodysenteriae = experiment: In vitro activity against Treponema hyodysenteriae on blood agar plates (MIC); assay type: cell-based
Procedure: A number of representative compounds, namely, 5b, 8, and 15b, were tested for their in vitro activity against Treponema hyodysenteriae. The treponema were propagated on blood agar plates. Each plate which was prepared contained 20 ml. of trypticase soy agar (Baltimore Biological Laboratory [BBL]) with 5.0 g./l. of yeast extract (Difco) and 5 percent sterile defibrinated horse blood. The plates were sterile plastic 15 × 100 mm. petri plates. Incubation was carried out at 37° C. for 4 days under anaerobic conditions using the BBL Gas Pak system.
The concentrations of test compounds in this initial test were prepared in dilutions ranging from 2000 mcg./ml. to 7.8 mcg./ml. The test procedure was carried out in the following manner. Five ml. of a twenty-fold concentration in tryptose broth (Difco) of each filter-sterilized test compound dilution was mixed in a series of flasks containing 90 ml. of melted trypticase soy agar with yeast extract. Five ml. of horse blood was then added per flask. The contents of these flasks were then used to prepare a series of blood agar plates in doubling decreasing dilutions ranging from 100 mcg./ml. to 0.39 mcg./ml.
The treponema for inoculation of these plates were obtained by adding 3.0 ml. of sterile tryptose broth to the surface of a plate on which the treponema had been propagated. A sterile cotton-tipped swab was used to loosen the treponema from the agar. […] The inoculum was spread so that it covered the surface of each plate, a bent sterile plastic pipette being used for this purpose for each plate. The plates were incubated at about 36° C. for about 4 days and then examined for growth of the treponema. The minimum inhibitory concentration (MIC) of each test compound was the concentration that prevented growth of treponema.

[3] = 5.0 mg./kg. intraperitoneal, challenge dilution 10^-^4 subcutaneous
[4] = 5.0 mg./kg. intraperitoneal, challenge dilution 10^-^5 subcutaneous
[5] = 5.0 mg./kg. intraperitoneal, challenge dilution 10^-^6 subcutaneous
[6] = challenge dilution 10^-^4 subcutaneous
[7] = challenge dilution 10^-^5 subcutaneous
[8] = challenge dilution 10^-^6 subcutaneous

Compound | MIC (Pseudomonas sp.) [µg/mL] | MIC (Aeromonas liquefaciens) [µg/mL] | in vivo activity against Salmonella typhimurium in chicks (Salmonella typhimurium) | responders at 5 mg/kg (Pasteurella multocida; [3]) [%] | responders at 5 mg/kg (Pasteurella multocida; [4]) [%] | responders at 5 mg/kg (Pasteurella multocida; [5]) [%] | responders at 2.5 mg/kg (Pasteurella multocida; [6]) [%] | responders at 2.5 mg/kg (Pasteurella multocida; [7]) [%] | responders at 2.5 mg/kg (Pasteurella multocida; [8]) [%] | in vitro activity against Trichomonas vaginalis (Trichomonas vaginalis [1]) | in vivo activity against Trichomonas vaginalis (Trichomonas vaginalis [2]) | Protective Index (log10 protection) (P. multocida; 0.5 g./gal. in drinking water) | Protective Index (log10 protection) (P. multocida; 2.0 g./gal. in drinking water) | MIC (Treponema hyodysenteriae; Brachyspira hyodysenteriae, 96 h, blood agar plates, about 36° C., about 4 days, read-out: minimum inhibitory concentration (MIC)) [µg/mL] | inhibition of growth of the treponema (Treponema hyodysenteriae; doubling dilutions 100 mcg./ml. to 0.39 mcg./ml.) | Survival ratio (mice surviving / mice tested) (Pasteurella multocida; [3]) | responders at 1.25 mg/kg (Pasteurella multocida; [6]) [%] | responders at 1.25 mg/kg (Pasteurella multocida; [7]) [%] | responders at 1.25 mg/kg (Pasteurella multocida; [8]) [%]
CCc1nc2c(c(-c3ncc([N+](=O)[O-])n3C)nn2C)c(=O)[nH]1 [Example 2, 6-Ethyl-1,5-dihydro-1-methyl-3-(1-methyl-5-nitroimidazol-2-yl)-4H-pyrazolo[3,4-d]pyrimidin-4-one] | 50 (≈ 165 µM) | 50 (≈ 165 µM) | active in vivo against Salmonella typhimurium in chicks | 20 | 33.3 | 33.3 |  |  |  |  |  |  |  |  |  |  |  |  | 
Cc1nc2c(c(-c3ncc([N+](=O)[O-])n3C)nn2C)c(=O)[nH]1 [Example 13, 1,5-Dihydro-1,6-dimethyl-3-(1-methyl-5-nitroimidazol-2-yl)-4H-pyrazolo[3,4-d]pyrimidin-4-one] |  |  | active in vivo against Salmonella typhimurium in chicks | 10 | 50 | 50 | 20 | 20 | 60 |  |  |  |  |  |  |  |  |  | 
Cn1nc(-c2ncc([N+](=O)[O-])n2C)c2c1NC(CCl)(OC(=O)CCl)NC2=O (centres unmarked) [Example 3, 6-(Chloromethyl)-6,7-dihydro-6-hydroxy-1-methyl-3-(1-methyl-5-nitroimidazol-2-yl)-1H-pyrazolo[3,4-d]pyrimidin-4-(5H)-one, chloroacetate ester] |  |  |  | 5 | 20 | 25 | 30 | 10 | 20 | active both in vitro and in vivo against Trichomonas vaginalis | active both in vitro and in vivo against Trichomonas vaginalis |  |  |  |  |  |  |  | 
5-[2-(Diethylamino)ethyl]-4,5-dihydro-4-imino-1-methyl-3-(1-methyl-5-nitroimidazol-2-yl)-1H-pyrazolo[3,4-d]-pyrimidine disulfate [Example 8i] |  |  |  |  |  |  |  |  |  |  |  | > 2.5 | > 2.5 |  |  |  |  |  | 
CN(C)CCCn1cnc2c(c(-c3ncc([N+](=O)[O-])n3C)nn2C)c1=N [Example 10, 5-[3-(Dimethylamino)propyl]-4,5-dihydro-4-imino-1-methyl-3-(1-methyl-5-nitroimidazol-2-yl)-1H-pyrazolo[3,4-d]pyrimidine] |  |  |  | 100 | 80 | 100 |  |  |  | active both in vitro and in vivo against Trichomonas vaginalis | active both in vitro and in vivo against Trichomonas vaginalis |  |  |  |  |  |  |  | 
CN(C)CCn1cnc2c(c(-c3ncc([N+](=O)[O-])n3C)nn2C)c1=N [Example 8, 5-[2-(Dimethylamino)ethyl]4,5-dihydro-4-imino-1-methyl-3-(1-methyl-5-nitroimidazol-2-yl)-1H-pyrazolo[3,4-d]pyrimidine] | 1.56 (≈ 4.52 µM) | 12.5 (≈ 36.2 µM) | active in vivo against Salmonella typhimurium in chicks |  | 100 | 100 | 40 | 60 | 100 | active both in vitro and in vivo against Trichomonas vaginalis | active both in vitro and in vivo against Trichomonas vaginalis |  |  | ≤ 1.56 | inhibited growth of the treponema at each of the levels tested | 10/10 | 20 | 40 | 60
